In article PMC4552634, “A New Set of Chemical Starting Points with Plasmodium falciparum Transmission-Blocking Potential for Antimalarial Drug Discovery” (PLoS ONE, 2015):
Read-outs that look alike come from different tables or passages of the source.

Key:
[1] = test system: P. falciparum stage V gametocytes; test: Gametocytocidal ATP bioluminescence assay (single point 5 μM and 1 μM, dose-response); type: cell-based, Plasmodium falciparum; settings: for Ratio IC50 HepG2/IC50 P. falciparum: IC50 HepG2 divided by IC50 P. falciparum gametocytes
[2] = test system: luciferase reaction (BacTiter-Glo); test: Interference assay (inhibition of the BacTiter-Glo luciferase reaction); type: biochemical; parameters: concentration or dose not given beside the values; settings: ATP interference assay
Procedure: To discard possible false-positive results, we performed an interference assay in parallel. […] […]. The ATP solution was made by dissolving ATP powder (ATP standard from the ATPlite 1 step assay kit, reference 6016731, Perkin Elmer) in culture medium. The positive control used was the Luciferase Inhibitor I Calbiochem (Merck, 119113) at 100 μM.

HepG2 cells = test: Cytotoxicity in HepG2 cells (intracellular ATP, ATPlite, 48 h); type: cell-based, human; settings: HepG2 cells; IC50 per ratio column head; unit inferred
[3] = test system: P. falciparum asexual stages; settings: asexual stages; TCAMS data; read-out: IC50 asexual; cited from earlier work
[4] = P. falciparum gametocytes, average, read-out: IC50 Pf Gametocytes average, IC50 (µM) average
[5] = sexual stages (gametocytes), dose-response, read-out: IC50 sexual

% Control luminiscence [2] [%]	Structure (SMILES)	Ratio IC50 HepG2/IC50 P. falciparum [1]	IC50 [1, 4] [µM]	IC50 [1, 5] [µM]	IC50 (HepG2 cells) [µM]	IC50 [3] [µM]
94	CCOCn1c(-c2ccccc2)cc2c3c(N)nc(N)nc3ccc21 [TCMDC-137979]	4.35	1.3	–	5.65	0.186
100	CN(C)CCNCc1cccc(-c2ccc3c(Nc4ccc(Oc5ccccn5)cc4)ccnc3c2)c1 [TCMDC-138493]	20	0.22	–	4.49	0.233
100	CC(C)CC(=O)N(Cc1ccc(-c2ccc(CNC3Cc4ccccc4C3)cc2)cc1)C1CCNCC1 [TCMDC-141449]	10	0.63	0.633	6.2	1.17
100	O=C(/C=C/c1ccc(Cl)c(Cl)c1)N1CCC(CCN2CCC(c3c[nH]c4cnccc34)CC2)CC1 [TCMDC-140136]	36	0.2	–	7.21	0.119
100	O=C(COc1ccccc1)N(Cc1ccc(-c2ccc(CNC3Cc4ccccc4C3)cc2)cc1)C1CCNCC1 [TCMDC-141450]	8	0.99	0.987	7.8	1.01
100	c1cc(C2=NC3CCCCC3N2)ccc1OCCCCCOc1ccc(C2=NC3CCCCC3N2)cc1 (centres unmarked) [TCMDC-137802]	13	0.28	–	3.74	0.228
94	CCCCCCCN1CC[C@@H](CCCc2ccnc3ccc(OCCN4CCNCC4)cc23)[C@@H](CC)C1 [TCMDC-139817]	12	0.57	0.567	6.75	0.771
100	CC(C)CNCc1ccc(-c2ccc(CN(CCCN3CCN(C)CC3)C(=O)CCC3CCCC3)cc2)cc1 [TCMDC-140559]	10	0.54	–	5.39	1.05
100	CCN(CC)CCN(Cc1ccc(-c2ccc(C(F)(F)F)cc2)cc1)C(=O)c1ccc(-c2ccc(NC(=O)OC)cc2C)cc1 [TCMDC-141558]	1.46	3.71	3.71	5.4	0.929
100	CN(CCCNCc1ccc2ccccc2c1)CCCNCc1ccc2ccccc2c1 [TCMDC-137908]	94	0.05	–	4.68	0.391
100	Cc1ccc(C(=O)Nc2ccc(Nc3ccnc4cc(-c5ccccn5)ccc34)cc2O)cc1 [TCMDC-138205]	6.48	0.48	–	3.11	0.111
100	CCCCCCCN1CC[C@@H](CCCc2ccnc3ccc(OC)cc23)[C@@H](CCN)C1 [TCMDC-139278]	11	0.27	0.267	2.98	0.748
100	CC(C)CNCc1cccc(-c2ccc(CN(CCCN3CCN(C)CC3)C(=O)/C=C/c3ccccc3)cc2)c1 [TCMDC-140545]	11	0.63	–	6.65	0.857
100	CC(CCCCCC(=O)Nc1ccc(CC(C)NCCc2cccc(Cl)c2)cc1)NCCc1cccc(Cl)c1 (centres unmarked) [TCMDC-139800]	7.38	0.43	0.433	3.2	0.948

The next lines start with the compound.

Structure (SMILES)	% Control luminiscence [2] [%]	Ratio IC50 HepG2/IC50 P. falciparum [1]	IC50 [1, 4] [µM]	IC50 [1, 5] [µM]	IC50 (HepG2 cells) [µM]	IC50 [3] [µM]
Cc1cc(NCCCCCCNc2cc(C)nc3c(C)cccc23)c2cccc(C)c2n1 [TCMDC-125702]	100	>7.5	3.32	3.31	> 25	0.406
Nc1ncc(-c2ccc3nccc(-c4ccncc4)c3c2)cc1S(=O)(=O)N1CCOCC1 [TCMDC-134180]	100	>3	6.9	–	> 25	0.872
Cc1ccc(-n2nc(-c3ccccc3)c3cc(C(=O)NCCN)sc32)cc1 [TCMDC-124776]	99	7	1.11	–	7.83	1.36
COc1ccc(CNCCc2cccs2)cc1-c1cccc(S(=O)(=O)NCCN2CCCC2)c1 [TCMDC-132479]	94	7	1.68	1.68	11.4	0.877
C[C@H](Cc1ccc(OCCCCCOc2ccc(C[C@@H](C)NC[C@H](O)c3cccc(Cl)c3)cc2)cc1)NC[C@H](O)c1cccc(Cl)c1 [TCMDC-131563]	100	3.25	0.55	–	1.79	0.19
COc1ccc(CNCCCCCCNCc2ccc(OC)c3ccccc23)c2ccccc12 [TCMDC-137631]	91	6	0.51	0.505	3.06	0.581
COc1cc(NC(=O)c2sc(-c3ccc(Cl)cc3)cc2NC(=O)c2ccncc2)ccc1OCCN1CCCC1 [TCMDC-135398]	100	–	0.15	–	3.23	0.031
CCc1[nH]nc(C(=O)NC2CCN(CC3(c4ccc(OC)cc4)CCCCC3)CC2)c1C [TCMDC-124840]	100	–	> 10	–	> 25	0.892
Cc1occc1C(=O)Nc1nc(-c2ccccn2)nc2ccsc12 [TCMDC-135244]	99	<5	0.3	0.303	< 1.56	0.899
CNCCNc1nccc(N2CCc3ncnc(Nc4ccc(OCc5cccc(F)c5)c(Cl)c4)c3C2)n1 [TCMDC-135478]	98	11	0.67	0.665	7.16	0.197
Cc1ccccc1OCC(O)CNC1CCC(NCC(O)COc2ccccc2C)CC1 (centres unmarked) [TCMDC-125142]	99	26	0.14	0.144	3.78	1.19
Fc1ccc(OC2CN(c3nccc(NCc4ccccc4Cl)n3)C2)cc1 [TCMDC-135110]	98	>10	2.51	2.51	> 25	0.898
COc1ccc(CNC2Cc3ccccc3C2)cc1-c1ccc(S(=O)(=O)NCCN2CCCC2)cc1 [TCMDC-132248]	100	6	1.38	1.38	8.28	0.582
COc1ccccc1-c1cccc(-c2cccc(NC(=O)c3ccc([N+](=O)[O-])o3)c2)n1 [TCMDC-124800]	100	7	1.66	1.66	11.5	0.603
C[C@H]1CN(Cc2cccc(-c3cc(CNC(=O)c4cccc(CC5CCN(C)CC5)c4)ccc3F)c2)CCN1C [TCMDC-136349]	100	8	0.85	–	6.97	1.09
CN(C)CCCn1c(N)c(-c2nc3ccccc3[nH]2)c2nc(C#N)c(C#N)nc21 [TCMDC-123729]	100	35	0.2	–	6.93	0.591
COc1ccc(OC)c(-c2cccc(-c3cccc(NC(=O)c4ccc([N+](=O)[O-])o4)c3)n2)c1 [TCMDC-124799]	100	8	0.78	–	6.15	0.371
CS(=O)(=O)c1cccc2sc(N3CCN(C(=O)c4ccc([N+](=O)[O-])o4)CC3)nc12 [TCMDC-124930]	100	<1.9	> 10	–	18.8	1.25
Cc1cc(-c2cccc(CNC3CCCC3)c2)ccc1S(=O)(=O)NCCN1CCCC1 [TCMDC-132279]	100	6	1.24	1.24	7.5	1.24
COc1ccc(C[C@H](N)C(=O)N[C@H]2[C@@H](O)[C@H](n3cnc4c(N(C)C)ncnc43)O[C@@H]2CO)cc1 [TCMDC-123927]	100	4	0.65	0.647	2.69	0.299
CCc1c(CCNCCCCCCNCCc2ccc([N+](=O)[O-])cc2)ccc(OC)c1OC [TCMDC-132066]	100	12	0.54	0.537	6.67	0.727
